Measured values as given in PubChem BioAssay (NCI).
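Tested at 5 concentrations; 48 h exposure; 96-well plates; endpoints linearly interpolated, else capped at highest concentration. At the GI50, growth is halved. TGI denotes the concentration required for complete inhibition of growth.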

Columns and labels:
Assay in all cases: NCI tumour cell line growth inhibition, 48 h
SNB-75 CNS = system: SNB-75 CNS
RXF 393 renal = system: RXF 393 renal
OVCAR-8 ovarian = system: OVCAR-8 ovarian
CAKI-1 renal = system: CAKI-1 renal
HCT-15 colon = system: HCT-15 colon
NCI-H226 lung = system: NCI-H226 lung
SF-539 CNS = system: SF-539 CNS
RPMI-8226 leukemia = system: RPMI-8226 leukemia
MALME-3M melanoma = system: MALME-3M melanoma
SK-MEL-5 melanoma = system: SK-MEL-5 melanoma

| SMILES | TGI (SNB-75 CNS) | TGI (RXF 393 renal) | TGI (OVCAR-8 ovarian) | TGI (CAKI-1 renal) | TGI (HCT-15 colon) | TGI (NCI-H226 lung) | TGI (SF-539 CNS) | TGI (RPMI-8226 leukemia) | GI50 (SNB-75 CNS) | GI50 (OVCAR-8 ovarian) | GI50 (CAKI-1 renal) | GI50 (HCT-15 colon) | GI50 (NCI-H226 lung) | GI50 (MALME-3M melanoma) | TGI (MALME-3M melanoma) | GI50 (SF-539 CNS) | GI50 (RPMI-8226 leukemia) | GI50 (SK-MEL-5 melanoma) | TGI (SK-MEL-5 melanoma) | GI50 (RXF 393 renal) |
| --- | --- | --- | --- | --- | --- | --- | --- | --- | --- | --- | --- | --- | --- | --- | --- | --- | --- | --- | --- | --- |
| O=[N+]([O-])C=C(c1ccc(Cl)cc1)c1ccc(Cl)cc1 | 39.7 µM | 33.5 µM | 36.3 µM | 37.7 µM | 38 µM | 30.7 µM | 31.5 µM | 34 µM |  |  |  |  |  |  |  |  |  |  |  |  |
| COCc1c(-c2cc3cc(C)cc(OC)c3s2)c2c(N)ncnn2c1CN1CCNC(=O)C1 | 17.8 µM |  | > 100 µM | 44.2 µM | 83.7 µM | 5.41 µM | 14.4 µM | 6.83 µM | 2.13 µM | 4.85 µM | 4.88 µM | 3.63 µM | 0.291 µM | 2.83 µM | 17.3 µM | 2.31 µM | 1.58 µM | 6.16 µM | 18.6 µM |  |
| Cc1ccc(/C=N/Nc2nc(Nc3ccccc3)nc(-n3nc(C)cc3C)n2)cc1 | > 100 µM |  | 11.5 µM | 9.45 µM | 46.4 µM | 37.7 µM | 25.1 µM | 12.9 µM | 10.9 µM | 3.33 µM | 2.56 µM | 2.63 µM | 4.88 µM | 4.21 µM | 26.8 µM | 4.5 µM | 3.19 µM | 1.77 µM | 7.44 µM |  |
| CC(=O)[O-].Cn1ccnc1CNCc1nccn1C.[Cu+2].[O-][Cl+3]([O-])([O-])[O-] | > 100 µM | > 100 µM | > 100 µM |  |  | > 100 µM | > 100 µM | > 100 µM | > 100 µM | > 100 µM |  |  | > 100 µM |  |  | > 100 µM | > 100 µM | > 100 µM | > 100 µM | > 100 µM |
| COc1ccc2c(c1OC)CO[C@@H]2[C@H]1c2c(cc3c(c2OC)OCO3)CCN1S(=O)(=O)c1cn(C)cn1 | > 100 µM |  | > 100 µM | > 100 µM | > 100 µM | 4.48 µM | 5.66 µM | 30.2 µM | 1.6 µM | 3.24 µM | 1.01 µM | 0.722 µM | 0.462 µM | 0.77 µM | > 100 µM | 1.57 µM | 2.48 µM | 0.444 µM | 6.24 µM |  |
| CCOC(=O)C(Cc1c[nH]c2cc([N+](=O)[O-])ccc12)NS(=O)(=O)c1ccc2ccccc2c1 (stereo unspecified) | 50.4 µM | 37.8 µM | 55.7 µM |  | 41.2 µM | 48.2 µM | 32.9 µM | > 100 µM |  |  |  |  |  |  |  |  |  |  |  |  |
| COC(=O)N[C@H](C(=O)O)C(C)O[Si](C)(C)C(C)(C)C (stereo partly specified) |  | > 100 µM | > 100 µM |  | > 100 µM | > 100 µM | > 100 µM | > 100 µM |  |  |  |  |  |  | > 100 µM |  |  |  | > 100 µM |  |
| CN(c1ccc(C(=O)c2ccc(N(C)S(C)(=O)=O)cc2)cc1)S(C)(=O)=O | > 100 µM |  | > 100 µM | > 100 µM |  | > 100 µM |  | > 100 µM |  |  |  |  |  |  | > 100 µM |  |  |  | 78.4 µM |  |
| CCCCCCCCCCCCCC[N+](C)(C)CCCCCCCCCCCCCC |  | 2.78 µM |  | 24.3 µM | > 100 µM |  |  | 4.44 µM |  |  | 3.56 µM | 3.33 µM |  |  |  |  | 1.77 µM |  |  | 1.28 µM |
